Results taken from ChEMBL document CHEMBL3400078, “Constituents of the stem barks of Ailanthus altissima and their potential to inhibit LPS-induced nitric oxide production” (Bioorg Med Chem Lett, 2015).

Test system: RAW264.7
Assay: Antiinflammatory activity in mouse RAW264.7 cells assessed as decrease in LPS-induced NO production after 24 hrs by Griess assay
Format: functional, cell-based
Details: RAW264.7, 24 h

IC50 [µM]	Structure (SMILES)
63.5	O=c1ccc2ncc(O[C@@H]3O[C@H](CO)[C@@H](O)[C@H](O)[C@H]3O[C@@H]3OC[C@](O)(CO)[C@H]3O)c3c4ccccc4n1c23
85	C[C@@](O)(CC(=O)O)CC(=O)OC[C@H]1O[C@@H](Oc2cnc3ccc(=O)n4c5ccccc5c2c34)[C@H](O)[C@@H](O)[C@@H]1O
> 100	C[C@@](O)(CC(=O)O)CC(=O)OC[C@H]1O[C@@H](Oc2cnc3ccc(=O)n4c5ccccc5c2c34)[C@H](O[C@@H]2OC[C@](O)(CO)[C@H]2O)[C@@H](O)[C@@H]1O
100	C=C1[C@@H](O)[C@]2(O)OC[C@]34[C@H]2[C@@]2(C)[C@H](O)[C@@H](O[C@@H]5O[C@H](CO)[C@@H](O)[C@H](O)[C@H]5O)C=C(C)[C@@H]2C[C@H]3OC(=O)C[C@@H]14
71.6	COc1cc(/C=C/C(=O)O)ccc1O[C@@H]1O[C@H](CO)[C@@H](O)[C@H](O)[C@H]1O
> 100	COc1cc2ccc(=O)oc2c(OC)c1O
43.8	COc1cc(C(=O)CCO)ccc1O
73.4	O=C(O)/C=C/c1ccc(O)cc1 [COUMARIC ACID]
> 100	COc1cc(/C=C/C(=O)O)ccc1O [FERULATE]
15.8	CC(=N)NCCCC[C@H](N)C(=O)O [L-NIL]
72.8	O=C(O)c1ccc(O)cc1 [PARABEN]
63.1	CC1=CC(=O)[C@@H](O)[C@]2(C)[C@H]3[C@@]4(O)C(=O)OC[C@@]35[C@@H](C[C@@H]12)OC(=O)C[C@H]5[C@H]4C [SHINJUDILACTONE]
56.4	C=C1[C@H](O)[C@]2(O)OC[C@]34[C@H]2[C@@]2(C)[C@H](O)[C@@H](O)C=C(C)[C@@H]2C[C@H]3OC(=O)C[C@@H]14 [SHINJULACTONE A]
21.6	COc1cc([C@H]2OC[C@H]3[C@@H]2CO[C@@H]3c2cc(OC)c(O)c(OC)c2)cc(OC)c1O [SYRINGARESINOL]
23.2	COc1cc(C(=O)O)ccc1O [VANILLIC ACID]
